Where two headings read alike, the source gives them in different places.
Experiments:
[1] = test system: primary human mesenchymal stem cells (MSCs); experiment: Osteoinductive (OI) alkaline phosphatase (ALP) assay, dose response, ALP normalised to DNA; format: cell-based
From the text: (§1) Samples from several classes of small molecule compounds including, corticosteroids, glucocorticoids, oxysterols, compounds that impact the HMG coA reductase pathway and compounds that upregulate intracellular cAMP were screened for osteoinductive potential with an alkaline phosphatase (ALP) assay in primary human mesenchymal stem cells (MSCs). Sample compounds were screened over a dose range in a multiwell plate format using DNA to normalize the ALP response as a function of cell number. These dose response curves allowed for the determination of an EC50 to measure relative potency of the osteogenic response between compounds. FIG. 1 is a representative dose response curve for two of the corticosteroid compounds tested, clobetasol propionate and dexamethasone. In addition to the functional analysis, certain identified compounds were run through an in vitro L929 cytotoxicity assay to determine a CC50.

L929 = experiment: In vitro L929 cytotoxicity assay (CTG); format: cell-based; conditions: L929 cells; read-out: Cytotox (CTG) CC50
From the text: as §1

MSCs [2] = experiment: Relative potency: ALP assay after short exposure times, then basal media to assay completion; format: cell-based, human; conditions: for EC50: MSCs, then basal media
Procedure: One part of this technology may involve coating an osteoconductive scaffold with an osteoinductive small molecule compound to thereby deliver the compound locally when the scaffold is implanted. Consequently, the optimal time and concentration profile required for the compound to remain at the site in order to influence an osteogenic outcome was determined. Initially, potency was determined by looking at exposure over 6 days. In order to better understand the optimal exposure profile, MSCs were treated over a series of dose ranges for exposure times starting at 1 hour out to 4 days, after which the compound treated media was removed and the cells were allowed to continue to assay completion under basal media conditions. This allowed for the determination of the relative potency of the compounds over short exposure periods and gave an indication of the release requirements that would be necessary to achieve the desired osteogenic outcome.
FIG. 2 is a representative relative potency graph of a corticosteroid, fluticasone propionate, based on the results shown in Table 2.

MSCs [3] = experiment: In vitro 3-D efficacy: ALP RNA expression in MSCs seeded on coated Scaffold I; format: cell-based; conditions: compound precoated on Scaffold I, MSCs cultured three days, versus basal conditions
Procedure: The osteoinductive potential of selected small molecule compounds were determined in vitro by seeding MSCs onto a three dimensional b-TCP polymer composite scaffold, Scaffold I, which had been coated with selected compounds prior to seeding. These cells were allowed to culture for a period of time after which they were assayed for alkaline phosphatase (ALP) RNA content, an early marker of osteogenic differentiation. FIG. 7 is a graphical illustration showing the amount of ALP RNA expression in the MSCs, expressed as a fold increase over basal conditions (standard culture conditions). In this example, dexamethasone (a control for the assay) was added to the culture media in solution whereas in all other cases the compounds were precoated on to Scaffold I followed by addition of the MSCs. The cells were then cultured for three days and assayed for their level of osteogenic response via ALP RNA expression.

[4] = Excipient testing at variable pH levels: solubility; format: physicochemical
Procedure: The goal of these experiments was to increase the solubility of the compound such that increased doses could be added to material scaffolds. In a set of experiments, the solubility of clobetasol propionate and fluticasone propionate were evaluated at three distinct pH levels with a series of excipients. Phosphate buffered solutions were prepared at pH levels 3 (Low), and 7 (Medium), and a Tris buffered solution was prepared at pH level 9 (High). Solubility of the compound in the presence of a given excipient was measured at the individual pH levels as a fold increase over the solubility of the compound with no excipient present. Data regarding the solubility of clobetasol propionate in combination with the excipients is given below in Table 3. Data regarding the solubility of fluticasone propionate in combination with the excipients is given below in Table 4.

15 mm radial defect = experiment: In vivo study in rabbit radial defect model, radiographs; conditions: Scaffold I coated intraoperatively plus autogenic bone marrow, three weeks post op
Procedure: An evaluation of two small molecule compounds, dexamethasone and 20S-hydroxycholesterol, was performed in the rabbit radial defect model. Scaffold I was coated with the compounds intraoperatively, combined with autogenic bone marrow, and implanted in a 15 mm radial defect. Radiographs were taken at 3 and 6 weeks post-operatively, after which the animals were sacrificed and explants analyzed by micro CT.

[5] = primary human MSCs, exposure over 6 days, read-out: OI Assay (ALP) EC50

CCC(=O)O[C@]1(C(=O)SCF)[C@H](C)C[C@H]2[C@@H]3C[C@H](F)C4=CC(=O)C=C[C@]4(C)[C@@]3(F)[C@@H](O)C[C@@]21C [Fluticasone propionate]
EC50 ([1]; MSCs, 6 days exposure, read-out: EC50 6 days): 0.0065 nM | EC50 [1, 5]: 0.0065 nM | CC50 (L929): > 1000 nM | EC50 (MSCs [2]; 1 hr exposure, read-out: EC50 1 hr.): 0.194 nM | EC50 (MSCs [2]; 4 hr exposure, read-out: EC50 4 hr.): 0.0422 nM | EC50 (MSCs [2]; 24 hr exposure, read-out: EC50 24 hr.): 0.0676 nM | EC50 (MSCs [2]; 72 hr exposure, read-out: EC50 72 hr): 0.0042 nM | Max Osteogenic Response (MSCs [2]; time range to reach the full response of the ALP assay control (dexamethasone at 10 nM for 6 days)): 48 to 72 h | ALP RNA expression (osteogenic differentiation of MSCs) (MSCs [3]): upregulated osteogenic differentiation of MSCs significantly | solubility, fold increase over no excipient ([4]; excipient Captisol, pH 3 (Low), phosphate buffered): 55.01 fold | solubility, fold increase over no excipient ([4]; excipient Captisol, pH 7 (Med), phosphate buffered): 80.81 fold | solubility, fold increase over no excipient ([4]; excipient Captisol, pH 9 (High), Tris buffered): 67.60 fold | solubility, fold increase over no excipient ([4]; excipient Cremophor_EL, pH 3 (Low), phosphate buffered): 94.00 fold | solubility, fold increase over no excipient ([4]; excipient Cremophor_EL, pH 7 (Med), phosphate buffered): 138.82 fold | solubility, fold increase over no excipient ([4]; excipient Cremophor_EL, pH 9 (High), Tris buffered): 89.92 fold | solubility, fold increase over no excipient ([4]; excipient DMA, pH 3 (Low), phosphate buffered): 6.67 fold | solubility, fold increase over no excipient ([4]; excipient DMA, pH 7 (Med), phosphate buffered): 8.41 fold | solubility, fold increase over no excipient ([4]; excipient DMA, pH 9 (High), Tris buffered): 7.07 fold | solubility, fold increase over no excipient ([4]; excipient DMSO, pH 3 (Low), phosphate buffered): 1.79 fold | solubility, fold increase over no excipient ([4]; excipient DMSO, pH 7 (Med), phosphate buffered): 1.96 fold | solubility, fold increase over no excipient ([4]; excipient DMSO, pH 9 (High), Tris buffered): 1.84 fold | solubility, fold increase over no excipient ([4]; excipient Dimethyl_isosorbide, pH 3 (Low), phosphate buffered): 4.14 fold | solubility, fold increase over no excipient ([4]; excipient Dimethyl_isosorbide, pH 7 (Med), phosphate buffered): 5.78 fold | solubility, fold increase over no excipient ([4]; excipient Dimethyl_isosorbide, pH 9 (High), Tris buffered): 5.01 fold | solubility, fold increase over no excipient ([4]; excipient Labrasol, pH 3 (Low), phosphate buffered): 54.03 fold | solubility, fold increase over no excipient ([4]; excipient Labrasol, pH 7 (Med), phosphate buffered): 85.96 fold | solubility, fold increase over no excipient ([4]; excipient Labrasol, pH 9 (High), Tris buffered): 79.23 fold | solubility, fold increase over no excipient ([4]; excipient NMP, pH 3 (Low), phosphate buffered): 6.39 fold | solubility, fold increase over no excipient ([4]; excipient NMP, pH 7 (Med), phosphate buffered): 9.02 fold | solubility, fold increase over no excipient ([4]; excipient NMP, pH 9 (High), Tris buffered): 7.96 fold | solubility, fold increase over no excipient ([4]; excipient PEG400, pH 3 (Low), phosphate buffered): 3.22 fold | solubility, fold increase over no excipient ([4]; excipient PEG400, pH 7 (Med), phosphate buffered): 4.32 fold | solubility, fold increase over no excipient ([4]; excipient PEG400, pH 9 (High), Tris buffered): 3.55 fold | solubility, fold increase over no excipient ([4]; excipient PVP, pH 3 (Low), phosphate buffered): 2.21 fold | solubility, fold increase over no excipient ([4]; excipient PVP, pH 7 (Med), phosphate buffered): 3.98 fold | solubility, fold increase over no excipient ([4]; excipient PVP, pH 9 (High), Tris buffered): 2.73 fold | solubility, fold increase over no excipient ([4]; excipient Propylene_glycol, pH 3 (Low), phosphate buffered): 5.63 fold | solubility, fold increase over no excipient ([4]; excipient Propylene_glycol, pH 7 (Med), phosphate buffered): 7.89 fold | solubility, fold increase over no excipient ([4]; excipient Propylene_glycol, pH 9 (High), Tris buffered): 5.90 fold | solubility, fold increase over no excipient ([4]; excipient Solutol_HS_15, pH 3 (Low), phosphate buffered): 3.82 fold | solubility, fold increase over no excipient ([4]; excipient Solutol_HS_15, pH 7 (Med), phosphate buffered): 5.00 fold | solubility, fold increase over no excipient ([4]; excipient Solutol_HS_15, pH 9 (High), Tris buffered): 4.47 fold | solubility, fold increase over no excipient ([4]; excipient Tweens, pH 3 (Low), phosphate buffered): 194.37 fold | solubility, fold increase over no excipient ([4]; excipient Tweens, pH 7 (Med), phosphate buffered): 272.98 fold | solubility, fold increase over no excipient ([4]; excipient Tweens, pH 9 (High), Tris buffered): 231.06 fold

CC(C)CCC[C@](C)(O)[C@H]1CC[C@H]2[C@@H]3CC=C4C[C@@H](O)CC[C@]4(C)[C@H]3CC[C@@]21C [20a-hydroxy-cholesterol]
EC50 [1, 5]: > 12000 nM | CC50 (L929): > 12000 nM | radiographs, periosteal response (15 mm radial defect): appeared to have an enhanced periosteal response

Source: patent US8642065B2, “Osteogenic promoting implants and methods of inducing bone growth” (DePuy Synthes Products, LLC, priority 2011, dated 2014)
